Laboratory results taken from patent EP4050002A1, “ANTI-PROLIFERATIVE AGENTS” (First Health Pharmaceuticals B.V., priority 2021, dated 2022).

How the values were obtained:
[1] = Tissue distribution after single I.P. administration; assay type: in vivo, male Swiss Albino Mice
Procedure: (§1) The pharmacokinetic study was performed in male Swiss albino mice from Hylasco Biotechnology Pvt. Ltd. (A Charles River technology Licensee). The tissue distribution study was performed in male Swiss albino mice and in male FOXN1^nu/nu nude mice (Envigo spa). The efficacy study was performed in male FOXN1^nu/nu nude mice.
Single intraperitoneal administration studies were done as follows: • 1. Compound 5 • dose 1: 45 mg/kg • dose concentration: […] in 10% DMSO, 5% TWEEN 80 and WFI (85%) • volume: 5 ml/kg • blood withdrawal time points: 0.25, 0.5, 1, 2, 4, 6, 8, 24 hours post administration • brain, liver and lungs collected at 4, 8 and 24 hours • 2. Compound 5 • dose 2: 10 mg/kg • dose concentration: 2 mg/ml in 10% DMSO, 10% Solutol and WFI (90%). • volume: 5 ml/kg • blood withdrawal time points: 0.25, 0.5, 1, 2, 4, 6, 8, 24 hours post administration
Selected organs were collected at 4, 8 and 24 hours for drug distribution studies: mice were anesthetized and intra-cardiac whole body perfusion was performed using chilled saline. Separated tissues were immediately washed, dried, weighed and frozen at -80±10°C until homogenization. The levels of compound in the tissues and in plasma were quantified by LC-MS/MS, using as instrument Q-TRAP 500, with a column Phenomenex, KINETEX 5µ EVO C18 50 mm X 4.5 mm (Phenomenex). The mobile phase employed was composed as follows: aqueous reservoir, 10 mM Ammonium Acetate with 0.1% Formic acid in MilliQ water; organic reservoir, Acetonitrile:Methanol (50:50, v/v); flow rate 1 ml/min; injection volume 10µl; rinsing solution, Acetonitrile:Methanol:Water (20:60:20, v/v).
Distribution to tissues is expressed as ratio between the compound level in tissues (ng compounds/ mg tissue) divided by the compound levels in blood (ng/ml), considering 1 ml of blood equal to […].

[2] = Tissue distribution in xenograft mice (conditions #1, #1A, #1B); assay type: in vivo, male FOXN1nu/nu nude mice; details: for Kp at 4 h: mouse, brain, ip, read-out: Brain to plasma
Procedure: as §1
At study closure, animals were sacrificed and tumor and tissues removed for further studies of distribution and morphology. Mice from the efficacy study were anesthetized using gaseous anesthesia and blood samples collected in Li-Heparin containing tubes by intracardiac puncture, stored on ice, centrifuged within 15 minutes to separate plasma at 1540 ref (5000 rpm), at 4°C for 10 minutes; plasma was separated and transferred to new tubes. After blood collection, tissues for bio-analyses were separated, washed in PBS, dried and frozen at -80±10°C until homogenization.
The levels of compound in the tissues were quantified by LC-MS/MS as follows.
UHPLC-MS/MS analysis was performed on a Q-Exactive Plus (ThermoFisher Scientific) mass spectrometer coupled with an UHPLC Ultimate 3000SD (ThermoFisher Scientific).
Chromatographic separation of the analytes was performed on an Acquity UPLC BEH Shield RP18 column ([…], 2.1 mm x 50 mm, […]) with a column temperature at 40°C.
The flow rate was 250 µl/min. The mobile phase was a gradient of a mixture of 10 mM ammonium acetate with 0.1% formic acid (phase A) and Acetonitrile:Methanol (50:50 v/v) as phase B. The gradient profile used began with an elution of (A:B) 70:30 v/v for 1 min, followed by a gradual decrease of A to (A:B) 5:95 v/v until 5 min, a constant gradient for 1 min of 95% of B, then a gradual decrease of B to the initial condition until 7 min and then a final conditioning of the column for about 4 min in order to equilibrate for the next injection.
The electrospray ionization source (ESI) was operated in positive mode. Parallel reaction monitoring (PRM) methods was applied to quantify compound 5. The selected transitions m/z 414.20-243.10 for compound 5 and m/z 360.18- 243.12 for the internal standard (compound 4) were considered. Each sample was assayed in duplicate.
Preparation of plasma samples: Mouse plasma (10 µl) was placed into a tube containing 188 µl of a chilled Acetonitrile:Methanol solution (50:50 v/v) in order to precipitate proteins. Each sample was spiked with a fixed concentration (200 nM) of compound 4 used as internal standard. After 1 min of vortex, the mixture was centrifuged at 10,000 x g for 15 minutes at 4 °C to separate the protein material from the supernatant. The last one of each sample was transferred to a new sample tube and the solvent was evaporated under nitrogen stream. The dried material was re-suspended in 100 µl of mobile phase. The resulting solution was then analyzed by UHPLC-MS/MS without further modifications.
Preparation of tissue samples was as follows: the tissues of interest were washed briefly with chilled water to remove traces of blood, if necessary, and cut into small pieces, keeping them on ice during all the operations. Then the samples were transferred to a tube and homogenized in purified water using the homogenizer TissueRuptor of Qiagen. In general, 300 µl of purified water was added to 50 mg of tissue. The homogenized samples were centrifuged at 10,000 x g for 15 minutes at 4°C to pellet cell debris, and then the supernatant were transferred to a clean tube in order to perform protein precipitation using a chilled solution of Acetonitrile:Methanol (50:50 v/v) and vortexed for 1 min. Before protein precipitation a fixed concentration (200 nM) of internal standard (Compound 4) was added in every sample. After centrifugation, the supernatant was separated from protein pellet and dried under nitrogen stream. 50 µl of mobile phase was used to re-suspend each dried sample. […]

[3] = 4 hours after single administration I.P. 45 mg/Kg
[4] = 8 hours after single administration I.P. 45 mg/Kg
[5] = 24 hours after single administration I.P. 45 mg/Kg
[6] = #1: single I.P. administration, 45 mg/Kg, withdrawal 4 hours after administration
[7] = #1A: two I.P. administration, 45 mg/Kg, at distance of 48 hours, withdrawal 4 hours after last administration
[8] = #1B: 6 weeks of repeated I.P. administration, 45 mg/kg, every 48 hours, withdrawal 4 hours after last administration

CCCCc1cn(-c2ccc(-c3nnc(-c4ccccc4C(F)(F)F)o3)cc2)nn1 [Compound 5]
Liver to plasma [1, 3]: 11.2 | Plasma [1, 3]: 2171 ng/mL | Liver to plasma [1, 4]: 9.2 | Plasma [1, 4]: 775 ng/mL | Liver to plasma [1, 5]: 9.2 | Plasma [1, 5]: 273 ng/mL | Kp at 4 h ([1]; mouse, brain, ip, 4 hours after single administration I.P. 45 mg/Kg, read-out: Brain to plasma): 2.4 | Kp at 8 h ([1]; mouse, brain, ip, 8 hours after single administration I.P. 45 mg/Kg, read-out: Brain to plasma): 2.1 | Kp at 24 h ([1]; mouse, brain, ip, 24 hours after single administration I.P. 45 mg/Kg, read-out: Brain to plasma): 1.75 | Adipose to plasma [2, 6]: 14.3 | Breast to plasma [2, 6]: 42.9 | Intestine to plasma [2, 6]: 5.8 | Kidney to plasma [2, 6]: 23.1 | Liver to plasma [2, 6]: 7.3 | Lung to plasma [2, 6]: 12.6 | Lymph node to plasma [2, 6]: 17.9 | Plasma [2, 6]: 2099.8 ng/mL | Spleen to plasma [2, 6]: 26.1 | Tumor to plasma [2, 6]: 11.3 | Adipose to plasma [2, 7]: 31.8 | Breast to plasma [2, 7]: 10.9 | Intestine to plasma [2, 7]: 4.2 | Kidney to plasma [2, 7]: 21.6 | Liver to plasma [2, 7]: 12.9 | Lung to plasma [2, 7]: 10.3 | Lymph node to plasma [2, 7]: 137.7 | Plasma [2, 7]: 2188.6 ng/mL | Spleen to plasma [2, 7]: 23.3 | Tumor to plasma [2, 7]: 39.9 | Adipose to plasma [2, 8]: 233.3 | Breast to plasma [2, 8]: 18.5 | Intestine to plasma [2, 8]: 10.9 | Kidney to plasma [2, 8]: 18.3 | Liver to plasma [2, 8]: 12.4 | Lung to plasma [2, 8]: 9.6 | Lymph node to plasma [2, 8]: 27.5 | Plasma [2, 8]: 4658.9 ng/mL | Spleen to plasma [2, 8]: 21.4 | Tumor to plasma [2, 8]: 14.9 | Kp at 4 h ([2]; 45 mg/kg, #1: single I.P. administration, 45 mg/Kg, withdrawal 4 hours after administration): 0.5 | Kp at 4 h ([2]; 45 mg/kg, #1A: two I.P. administration, 45 mg/Kg, at distance of 48 hours, withdrawal 4 hours after last administration): 1.1 | Kp at 4 h ([2]; 45 mg/kg, #1B: 6 weeks of repeated I.P. administration, 45 mg/kg, every 48 hours, withdrawal 4 hours after last administration): 0.7
